Measurements published in publication PMC5473807, “Distribution and kinetics of the Kv1.3-blocking peptide HsTX1[R14A] in experimental rats” (Scientific Reports, 2017).

Molecular target: T1, mKv1.3 (Mus musculus, UniProt P16390)
T1 construct: expressed in transfected cells
Experiment: Whole-cell patch-clamp block of Kv1.3 currents
Assay type: cell-based
Conditions: L929 mouse fibroblasts stably expressing mKv1.3, room temperature, peak current at 40 mV, Hill fit, n = 3 cells per concentration, read-out: IC50 against Kv1.3
Procedure: L929 mouse fibroblast cells stably expressing mKv1.3[32] were gifts from Dr. K. George Chandy (University of California, Irvine). They were maintained in DMEM medium (Invitrogen, Carlsbad, CA) supplemented with 100 IU/mL penicillin, […] streptomycin, 2 mM L-glutamine, 10% heat-inactivated foetal bovine serum, and 0.5 mg/mL G418 (EMD Chemicals, Gibbstown, NJ).
Electrophysiology experiments were conducted at room temperature in the whole-cell configuration of the patch-clamp technique on a Port-a-Patch setup (Nanion, North Brunswick, NJ) linked to a HEKA EPC10USB amplifier (HEKA Instruments, Bellmore, NY). A holding potential of −80 mV was used for all recordings. Pipette resistances averaged 2.0 MΩ when filled with internal solution containing (in mM): 145 KF, 10 HEPES, 10 EGTA, and 2 MgCl2, pH 7.2, 290 mOsm. Kv currents were elicited every 30 s by 200-ms depolarising pulses from a holding potential of −80 mV to 40 mV. Kv1.3 currents were recorded in normal Ringer solution containing (in mM): 160 NaCl, 4.5 KCl, 2 CaCl2, 1 MgCl2, and 10 HEPES, pH 7.2, 300 mOsm. IC50 values and Hill coefficients were determined by fitting the Hill equation to the reduction of peak current by the drug at 40 mV.
Figure S2. […] (a) Whole-cell Kv1.3 currents measured by whole-cell patch-clamp in stably transfected L929 fibroblasts before (control) and after perfusion of 10 pM and 100 nM NOTA-HsTX1[R14A]. […]

T1 sequence (P16390 whole entry): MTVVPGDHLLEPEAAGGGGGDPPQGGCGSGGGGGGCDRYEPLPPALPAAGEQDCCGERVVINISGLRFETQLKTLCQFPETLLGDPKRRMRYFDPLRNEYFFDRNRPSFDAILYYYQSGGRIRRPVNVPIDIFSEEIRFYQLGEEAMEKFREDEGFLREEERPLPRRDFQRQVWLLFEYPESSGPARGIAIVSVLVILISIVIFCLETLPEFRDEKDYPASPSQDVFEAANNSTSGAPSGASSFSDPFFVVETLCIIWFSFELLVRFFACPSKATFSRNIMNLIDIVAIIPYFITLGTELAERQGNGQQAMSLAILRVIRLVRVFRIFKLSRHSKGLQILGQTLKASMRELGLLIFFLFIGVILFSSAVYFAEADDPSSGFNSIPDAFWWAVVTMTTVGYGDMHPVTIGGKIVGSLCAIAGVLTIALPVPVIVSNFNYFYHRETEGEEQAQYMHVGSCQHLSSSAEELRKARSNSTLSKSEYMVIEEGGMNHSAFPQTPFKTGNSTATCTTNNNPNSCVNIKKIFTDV

CSCC[C@@H]1NC(=O)[C@@H]2CSSC[C@H](NC(=O)[C@H](CO)NC(=O)[C@H](C)NC(=O)COCCOCCNC(=O)CN3CCN(CC(=O)O)CCN(CC(=O)O)CC3)C(=O)N[C@@H](CCCNC(=N)N)C(=O)N[C@@H]([C@@H](C)O)C(=O)N3CCC[C@H]3C(=O)N[C@@H](CCCCN)C(=O)N[C@@H](CC(=O)O)C(=O)N[C@H]3CSSC[C@H](NC(=O)[C@H](CCCCN)NC(=O)[C@H](CCCNC(=N)N)NC(=O)[C@H](CC(N)=O)NC1=O)C(=O)N[C@@H](CCCCN)C(=O)N[C@H]1CSSC[C@H](NC(=O)[C@@H]4CCCN4C(=O)[C@H](CC(=O)O)NC(=O)[C@H](C)NC3=O)C(=O)N[C@@H](C)C(=O)N[C@@H](CCCCN)C(=O)N[C@@H](CCC(=O)O)C(=O)N[C@@H]([C@@H](C)O)C(=O)NCC(=O)N[C@@H](CSSC[C@@H](C(N)=O)NC(=O)[C@H](CCCNC(=N)N)NC(=O)[C@H](CC(N)=O)NC1=O)C(=O)N1CCC[C@H]1C(=O)N[C@@H](Cc1ccc(O)cc1)C(=O)NCC(=O)N[C@@H](CCCCN)C(=O)N2 [NOTA-HsTX1[R14A]]
IC50: 0.068 ± 0.012 nM
